The target in the experiment is DDAH (Rattus norvegicus, UniProt O08557). Nature of the experiment: DDAH activity toward ADMA versus SDMA. The format is biochemical. The conditions noted are these: ADMA versus SDMA as substrate. From the text:
DDAH, however, has at least 1000-fold higher activity toward ADMA than SDMA, and is therefore uniquely suited for use in an enzymatic assay for unequivocal measurement of ADMA in complex mixtures. Nevertheless an enzymatic ADMA assay using DDAH is problematical because of a number of interfering components in blood. Importantly, citrulline is present in blood, so that it would provide a large background which would substantially diminish the accuracy of an assay where citrulline is the final product which is determined as a measure of the amount of ADMA in the sample. In addition, urea which is also present in blood cross-reacts in the citrulline assay. Finally, porphyrins in blood interfere with the spectrophotometric determination of citrulline. In order to have an enzymatic assay using DDAH, it is essential to prevent these various blood components from interfering with the assay.

Chain of DDAH (O08557 whole entry): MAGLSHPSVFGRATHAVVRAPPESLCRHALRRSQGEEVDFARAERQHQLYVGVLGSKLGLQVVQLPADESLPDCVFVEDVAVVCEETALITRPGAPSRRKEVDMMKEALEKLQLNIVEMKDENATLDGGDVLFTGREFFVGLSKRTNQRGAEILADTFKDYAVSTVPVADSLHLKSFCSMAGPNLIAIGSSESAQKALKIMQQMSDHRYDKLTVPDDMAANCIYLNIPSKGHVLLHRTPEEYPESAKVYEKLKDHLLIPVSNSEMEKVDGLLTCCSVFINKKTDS

Consider `CN(C)C(N)=NCCC[C@H](N)C(=O)O` [ADMA, asymmetric dimethylarginine], for which the “DDAH activity toward ADMA relative to SDMA” value was “at least 1000 fold”.
